Data from ChEMBL document CHEMBL1124722, “Synthesis and anticonvulsant activity of 2-benzylglutarimides” (J Med Chem, 1990).
Calls of active or inactive are those of the source. The rule behind the calls is not given here.

Key:
[1] = species on record: Mus musculus; test: Time of peak effect was determined for toxicity; format: organism-based; design: unit not given here; settings: in vivo
[2] = Protective index was calculated (TD50/ED50) in scMET assay in mice after intraperitoneal administration; format: functional
[3] = system: Mus musculus; test: Anticonvulsant activity against maximal electroshock induced seizures after 4 hr; Not active up to 300 mg/kg.; format: functional, organism-based; design: dose 300 mg/kg
[4] = The cytotoxicity after intraperitoneal administration; format: organism-based; settings: mouse, in vivo, ip
[5] = system: Mus musculus; test: The Neurologic toxicity by measuring rotarod test after 0.5 hr at 300 mg/kg; Active; format: organism-based; design: dose 300 mg/kg; settings: in vivo
[6] = system: Mus musculus; test: The Neurologic toxicity by measuring rotarod test after 4 hr at 300 mg/kg; Active; format: organism-based; design: dose 300 mg/kg; settings: in vivo
[7] = system: Mus musculus; test: Anticonvulsant activity against maximal electroshock induced seizures (MES) after 0.5 h; Not active up to 300 mg/kg; format: functional, organism-based; design: dose 300 mg/kg
[8] = system: Mus musculus; test: The effective dose of compound was tested against subcutaneous administered Metrazol induced seizures after intraperitoneal administration.; format: functional
[9] = system: Mus musculus; test: Anticonvulsant activity against subcutaneous administered Metrazol induced seizures (scMET) after 4 hr at 100 mg/kg; Active; format: functional, organism-based; design: dose 100 mg/kg
[10] = Protective index was calculated (TD50/ED50) in MES assay in mice after intraperitoneal administration; […]; format: functional, organism-based
[11] = species on record: Mus musculus; test: Time of peak effect was determined for activity in MES; format: functional; design: unit not given here
[12] = system: Mus musculus; test: Anticonvulsant activity against subcutaneous administered Metrazol induced seizures (scMET) after 0.5 hr at 300 mg/kg; Active; format: functional, organism-based; design: dose 300 mg/kg
[13] = system: Mus musculus; test: Anticonvulsant activity against maximal electroshock induced seizures (MES) after 0.5 hr at 300 mg/kg; Active; format: functional, organism-based; design: dose 300 mg/kg
[14] = system: Mus musculus; test: The effective dose of compound was tested against subcutaneous administered Metrazol induced seizures after intraperitoneal administration; format: functional
[15] = Protective index was calculated (TD50/ED50) in MES assay in mice after intraperitoneal administration; format: functional
[16] = system: Mus musculus; test: The effective dose of compound was tested against maximal electroshock induced seizures after intraperitoneal administration; format: functional; settings: ip
[17] = system: Mus musculus; test: Anticonvulsant activity against subcutaneous administered Metrazol induced seizures (scMET) after 0.5 hr at 100 mg/kg; Active; format: functional, organism-based; design: dose 100 mg/kg
[18] = system: Mus musculus; test: (§1) The Neurologic toxicity by measuring rotarod test after 4 hr; Not active up to 300 mg/kg; format: organism-based; design: dose 300 mg/kg; settings: in vivo
[19] = system: Mus musculus; test: Anticonvulsant activity against subcutaneous administered Metrazol induced seizures (scMET) after 4 hr; Not active up to 300 mg/kg; format: functional, organism-based; design: dose 300 mg/kg
[20] = system: Mus musculus; test: Anticonvulsant activity against subcutaneous administered Metrazol induced seizures (scMET) after 4 hr at 300 mg/kg; Active; format: functional, organism-based; design: dose 300 mg/kg
[21] = system: Mus musculus; test: (§2) The Neurologic toxicity by measuring rotarod test after 0.5 h; Not active up to 300 mg/kg; format: organism-based; design: dose 300 mg/kg; settings: in vivo
[22] = system: Mus musculus; test: Anticonvulsant activity against maximal electroshock induced seizures (MES) after 4 hr at 300 mg/kg; Active; format: functional, organism-based; design: dose 300 mg/kg
[23] = species on record: Mus musculus; test: (§3) Time of peak effect activity against maximal electroshock induced seizures; format: functional
[24] = system: Mus musculus; test: The Neurologic toxicity by measuring rotarod test after 4 hr; No toxicity up to 300 mg/kg; format: organism-based; design: dose 300 mg/kg; settings: in vivo
[25] = species on record: Mus musculus; test: Time of peak effect toxicity against maximal electroshock induced seizures; format: organism-based; settings: in vivo
[26] = system: Mus musculus; test: Anticonvulsant activity against subcutaneous administered Metrazol induced seizures (scMET) after 0.5 hr at 30 mg/kg; Active; format: functional, organism-based; design: dose 30 mg/kg
[27] = system: Mus musculus; test: The effective dose of compound was tested against maximal electroshock induced seizures after intraperitoneal administration; no protection up to 1050 mg/kg; format: functional, organism-based; design: dose 1050 mg/kg
[28] = system: Mus musculus; test: Anticonvulsant activity against maximal electroshock induced seizures (MES) after 0.5 hr at 100 mg/kg; Active; format: functional, organism-based; design: dose 100 mg/kg
[29] = species on record: Mus musculus; test: Median hypnotic dose by loss of righting reflex.; format: functional
[30] = species on record: Mus musculus; test: as §3; format: ADME, organism-based; settings: in vivo
[31] = system: Mus musculus; test: The effective dose of compound was tested against subcutaneous administered Metrazol induced seizures in mice; format: functional; settings: sc
[32] = system: Rattus norvegicus; test: The effective dose of compound was tested against subcutaneous administered Metrazol induced seizures in rat.; format: functional; settings: sc
[33] = system: Mus musculus; test: The effective dose of compound was tested against maximal electroshock induced seizures after intraperitoneal administration.; format: functional; settings: ip
[34] = system: Rattus norvegicus; test: The effective dose of compound was tested against maximal electroshock induced seizures after oral administration in rat.; format: functional
[35] = Median lethal dose was measured after 24 hr.; format: organism-based; settings: mouse, in vivo
[36] = system: Mus musculus; test: The compound was tested for anticonvulsant activity against (subcutaneous administered) Metrazol induced seizures after intraperitoneal administration; format: functional
[37] = system: Mus musculus; test: The effective dose of compound was tested against maximal electroshock induced seizures after oral administration in mice.; format: functional
[38] = system: Mus musculus; test: Anticonvulsant activity against subcutaneous administered Metrazol induced seizures (scMET) after 0.5 hr; Not active up to 300 mg/kg; format: functional, organism-based; design: dose 300 mg/kg
[39] = system: Rattus norvegicus; test: The effective dose of compound was tested against subcutaneous administered Metrazol induced seizures in rat; NE=Not effective; format: functional, organism-based
[40] = The cytotoxicity after intraperitoneal administration in rat.; format: organism-based; settings: in vivo, ip
[41] = system: Mus musculus; test: The effective dose of compound was tested against subcutaneous administered Metrazol induced seizures after intraperitoneal administration;NE=Not effective; format: functional, organism-based
[42] = system: Mus musculus; test: The Neurologic toxicity by measuring rotarod test after 0.5 h up to 300 mg/kg; format: functional, organism-based; design: dose 300 mg/kg
[43] = system: Mus musculus; test: Anticonvulsant activity against subcutaneous administered Metrazol induced seizures (scMET) after 4 hr up to 300 mg/kg; format: functional, organism-based; design: dose 300 mg/kg
[44] = system: Mus musculus; test: The Neurologic toxicity by measuring rotarod test after 4 hr up to 300 mg/kg; format: functional, organism-based; design: dose 300 mg/kg
[45] = system: Mus musculus; test: as §2; format: functional, organism-based; design: dose 300 mg/kg
[46] = system: Mus musculus; test: as §1; format: functional, organism-based; design: dose 300 mg/kg
[47] = system: Mus musculus; test: The effective dose of compound was tested against maximal electroshock induced seizures after oral administration in mice; format: functional
[48] = species on record: Mus musculus; test: Median hypnotic dose by loss of righting reflex; format: functional
[49] = species on record: Mus musculus; test: Median lethal dose was measured after 24 hr; format: functional
[50] = system: Mus musculus; test: The compound was tested for anticonvulsant activity against (subcutaneous administered) strychnine induced seizures after intraperitoneal administration; format: functional

Structure (SMILES)	TPE [1]	Ratio [2]	Activity [3]	TD50 [4] [mg/kg]	Toxicity [5]	Activity [7]	TPE [11]	ED50 [14] [mg/kg]	Toxicity [18]	Activity [19]	Toxicity [21]	Activity [38]	also measured
O=C1CCC(Cc2ccc(Cl)cc2Cl)C(=O)N1 (stereo not given)	0.5	4.29	inactive	687	Active	inactive	1						Toxicity [6]: Active; ED50 [8]: 160 mg/kg; Activity [9]: Active; Ratio [10]: inactive; Activity [12]: Active
CN1C(=O)CCC(Cc2ccc(Cl)cc2)C1=O (stereo not given)	1	2.81	inactive	348	Active		0.5	124	Not Active	inactive			Activity [13]: Active; Ratio [15]: 1.4; ED50 [16]: 248 mg/kg; Activity [17]: Active
CN1C(=O)CCC(Cc2ccc(C(F)(F)F)cc2)C1=O (stereo not given)						inactive			Not Active		Not Active		Activity [20]: Active; Activity [22]: Active; Activity [12]: Active
O=C1CCC(Cc2ccc(Br)cc2)C(=O)N1 (stereo not given)		9.11		513	Active			56.3					TPE [23]: 1; Activity [13]: Active; Activity [20]: Active; Toxicity [24]: No toxicity up to 300 mg/kg; Ratio [15]: 1.84; ED50 [16]: 279 mg/kg; TPE [25]: 1; Activity [22]: Active; Activity [26]: Active
O=C1CCC(Cc2ccc(F)cc2)C(=O)N1 (stereo not given)			inactive		Active				Not Active	inactive			Activity [12]: Active
CN1C(=O)CCC(Cc2ccc(Cl)cc2Cl)C1=O (stereo not given)	2	4.24	inactive	650		inactive	0.5	153	Not Active		Not Active		Activity [17]: Active; Activity [9]: Active; ED50 [27]: no protection up to 1050 mg/kg
CN1C(=O)CCC(Cc2ccc(I)cc2)C1=O (stereo not given)			inactive			inactive			Not Active		Not Active		Activity [20]: Active; Activity [26]: Active
CN1C(=O)CCC(Cc2ccccc2)C1=O (stereo not given)			inactive			inactive			Not Active	inactive	Not Active		
CN1C(=O)CCC(Cc2ccccc2Br)C1=O (stereo not given)	0.5	2.41	inactive	617			1	256	Not Active		Not Active		Ratio [15]: 1.3; ED50 [16]: 474 mg/kg; Activity [9]: Active; Activity [12]: Active; Activity [28]: Active
CCC1(C)CC(=O)NC1=O (stereo not given) [ETHOSUXIMIDE]													HD50 [29]: 850.61 mg/kg; Activity [30]: 0.5; ED50 [31]: 192 mg/kg; ED50 [32]: 54 mg/kg; ED50 [33]: > 1000 mg/kg; ED50 [34]: > 1200 mg/kg; Time of peak effect [25]: 0.5; LD50 at 24 h [35]: 1750 mg/kg; ED50 [36]: 130 mg/kg; ED50 [8]: 130 mg/kg; ED50 [37]: > 2000 mg/kg
CCCOc1ccc(CC2CCC(=O)NC2=O)cc1 (stereo not given)			inactive		Active	inactive				inactive		inactive	Toxicity [6]: Active
CC(C)Oc1ccc(CC2CCC(=O)NC2=O)cc1 (stereo not given)			inactive		Active	inactive				inactive		inactive	Toxicity [6]: Active
O=C1CCC(Cc2ccccc2Br)C(=O)N1 (stereo not given)			inactive		Active	inactive				inactive		inactive	Toxicity [6]: Active
O=C1NC(=O)C(c2ccccc2)(c2ccccc2)N1 [PHENYTOIN]	2						2						Activity [23]: 2 h; HD50 [29]: 178.34 mg/kg; ED50 [39]: inactive; TD50 [40]: > 3000 mg/kg; Time of peak effect [25]: 2 h; LD50 at 24 h [35]: 230 mg/kg; ED50 [41]: inactive
O=C1CCC(Cc2ccccc2)C(=O)N1 (stereo not given)			inactive									inactive	Activity [13]: Active; Toxicity [42]: inactive; Activity [43]: inactive; Toxicity [44]: inactive
O=C1CCC(Cc2ccc(-c3ccccc3)cc2)C(=O)N1 (stereo not given)			inactive			inactive			Not Active	inactive	Not Active	inactive	
O=C1CCC(Cc2ccc(C(F)(F)F)cc2)C(=O)N1 (stereo not given)	1	2.92		349	Active		2	119					Activity [13]: Active; Activity [20]: Active; Ratio [15]: 2.76; ED50 [16]: 126 mg/kg; Activity [17]: Active; Toxicity [6]: Active; Activity [22]: Active
CN1C(=O)CCC(Cc2ccc(Br)cc2)C1=O (stereo not given)	1.5	3.72	inactive	534			1	143	Not Active	inactive	Not Active		Activity [13]: Active; Ratio [15]: 3.8; ED50 [16]: 162 mg/kg; Activity [17]: Active
O=C1CCC(Cc2ccc(Cl)c(Cl)c2)C(=O)N1 (stereo not given)			inactive			inactive			Not Active	inactive	Not Active	inactive	
CN1C(=O)CCC(Cc2ccc([Si](C)(C)C)cc2)C1=O (stereo not given)			inactive			inactive				inactive		inactive	Toxicity [45]: inactive; Toxicity [46]: inactive
CCCC(CCC)C(=O)O [VALPROIC ACID]								149					Activity [23]: 0.25; ED50 [31]: 388 mg/kg; ED50 [32]: 180 mg/kg; ED50 [47]: 665 mg/kg; ED50 [16]: 272 mg/kg; HD50 [48]: 885.53 mg/kg; Time of peak effect [25]: 0.25; ED50 [36]: 149 mg/kg; LD50 [49]: 1100 mg/kg; ED50 [50]: 293 mg/kg
C[Si](C)(C)c1ccc(CC2CCC(=O)NC2=O)cc1 (stereo not given)			inactive			inactive				inactive		inactive	Toxicity [45]: inactive; Toxicity [46]: inactive
